Experimental data: PubChem BioAssay (NCI)
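Interpolation was linear, between the two tested concentrations surrounding the appropriate level; five concentrations were tested over 48 hours in 96-well plates. Definition used: TGI = concentration required for complete inhibition of growth.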

Experiments:
Assay in all cases: DTP human tumour cell line panel, 48 h
CCRF-CEM leukemia = tested on: CCRF-CEM leukemia
HCC-2998 colon = tested on: HCC-2998 colon
HL-60(TB) leukemia = tested on: HL-60(TB) leukemia
HOP-62 NSCLC = tested on: HOP-62 NSCLC
K-562 leukemia = tested on: K-562 leukemia
MALME-3M melanoma = tested on: MALME-3M melanoma
MDA-MB-231 breast = tested on: MDA-MB-231 breast
MDA-MB-435 = tested on: MDA-MB-435
NCI-H226 lung = tested on: NCI-H226 lung
NCI/ADR-RES ovarian = tested on: NCI/ADR-RES ovarian
SF-268 CNS = tested on: SF-268 CNS
SNB-19 CNS = tested on: SNB-19 CNS

SMILES: COC(=O)c1ccc(/C=C/C2=CC(=O)C=CC2=O)cc1
- TGI (CCRF-CEM leukemia): 6.54 µM
- TGI (HCC-2998 colon): 38.5 µM
- TGI (HL-60(TB) leukemia): 5.9 µM
- TGI (HOP-62 NSCLC): > 100 µM
- TGI (K-562 leukemia): 8.55 µM
- TGI (MALME-3M melanoma): 36.9 µM
- TGI (MDA-MB-231 breast): > 49.2 µM
- TGI (MDA-MB-435): 44 µM
- TGI (NCI-H226 lung): 40.2 µM
- TGI (NCI/ADR-RES ovarian): 97.9 µM
- TGI (SF-268 CNS): 42.9 µM
- TGI (SNB-19 CNS): > 43 µM

SMILES: OC1(c2ccc(Cl)cc2)c2ccccc2C2=Nc3ccccc3CN21 (stereo not given)
- TGI (CCRF-CEM leukemia): > 100 µM
- TGI (HCC-2998 colon): > 100 µM
- TGI (HL-60(TB) leukemia): > 75.5 µM
- TGI (HOP-62 NSCLC): 30.8 µM
- TGI (K-562 leukemia): > 100 µM
- TGI (MALME-3M melanoma): 92 µM
- TGI (MDA-MB-231 breast): > 100 µM
- TGI (MDA-MB-435): > 100 µM
- TGI (NCI-H226 lung): > 71.9 µM
- TGI (NCI/ADR-RES ovarian): 98.8 µM
- TGI (SF-268 CNS): > 100 µM
- TGI (SNB-19 CNS): > 67.6 µM

SMILES: C#CCNC(Cc1ccccc1)C(=O)O (stereo not given)
- TGI (CCRF-CEM leukemia): > 100 µM
- TGI (HCC-2998 colon): > 100 µM
- TGI (HL-60(TB) leukemia): > 100 µM
- TGI (HOP-62 NSCLC): > 100 µM
- TGI (K-562 leukemia): > 100 µM
- TGI (MALME-3M melanoma): > 100 µM
- TGI (MDA-MB-231 breast): > 100 µM
- TGI (MDA-MB-435): > 100 µM
- TGI (NCI-H226 lung): > 100 µM
- TGI (NCI/ADR-RES ovarian): > 100 µM
- TGI (SF-268 CNS): > 100 µM
- TGI (SNB-19 CNS): > 100 µM

SMILES: CCOC(=O)c1c(OCC)[nH]c(=O)c(C(c2ccc(F)cc2)c2c(O)c(C(=O)OCC)c(OCC)[nH]c2=O)c1O
- TGI (CCRF-CEM leukemia): > 100 µM
- TGI (HCC-2998 colon): 39 µM
- TGI (HL-60(TB) leukemia): 54.3 µM
- TGI (HOP-62 NSCLC): 36.1 µM
- TGI (K-562 leukemia): 50.8 µM
- TGI (MALME-3M melanoma): 29.5 µM
- TGI (MDA-MB-231 breast): 29.8 µM
- TGI (MDA-MB-435): 37.7 µM
- TGI (NCI-H226 lung): 26.1 µM
- TGI (NCI/ADR-RES ovarian): > 100 µM
- TGI (SF-268 CNS): 33.6 µM
- TGI (SNB-19 CNS): 42.2 µM

SMILES: COC(=O)c1c(C)nc(C)c(N=O)c1-c1ccccc1C(F)(F)F
- TGI (CCRF-CEM leukemia): > 100 µM
- TGI (HCC-2998 colon): > 100 µM
- TGI (HL-60(TB) leukemia): > 100 µM
- TGI (HOP-62 NSCLC): > 100 µM
- TGI (K-562 leukemia): > 100 µM
- TGI (MALME-3M melanoma): 30.2 µM
- TGI (MDA-MB-231 breast): 32.3 µM
- TGI (MDA-MB-435): 56.3 µM
- TGI (NCI-H226 lung): 43.2 µM
- TGI (NCI/ADR-RES ovarian): 44.5 µM
- TGI (SF-268 CNS): 30.8 µM
- TGI (SNB-19 CNS): > 100 µM
